One series concerns s.c. pentetrazole. Nature of the series: Anticonvulsant action, s.c. pentetrazole (PTZ), mouse i.p. It is filed as in vivo. The following applies: ip, read-out: Action in % of the protected animals. The procedure:
(§1) The compounds according to the invention were tested for their anticonvulsant action in vivo after i.p. administration to mice according to the international customary standard (Pharmac. Weekblad, Sc. Ed. 14, 132 (1992) and Antiepileptic Drugs, Third Ed., Raven Press, New York 1989) (Table 1). [table]

The nature of series [1]: Octanol/water partition coefficient. The class given is physicochemical.
Series [2] concerns maximal electroshock. Nature of the series: Maximal electroshock in the rat, p.o. It is filed as in vivo. The following applies: po. The procedure: (§2) This compound is also active in convulsion models using bicuculline and picrotoxin as convulsion-inducing cause. Compound 14 (5-(2-methylbenzyl)-2-methyl-2,5-dihydropyrazolo[3,4-d]pyrimidin-4-one) is likewise strongly anticonvulsant with a large therapeutic breadth (ED50 (rat p.o.) =9 mg/kg, NT50>300 mg/kg). Compound 21 has a similar pharmacological profile (ED50 (rat p.o.) =3 mg/kg, NT50>300 mg/kg).

For series [3], the system named is maximal electroshock. The series can be described thus: Anticonvulsant action, maximal electroshock (MES), mouse i.p. The class given is in vivo. The following applies: ip, read-out: Action in % of the protected animals. The procedure:
as §1

In a further series the test system is bicuculline. The series can be described thus: Convulsion model using bicuculline. It is filed as in vivo. The note with it: bicuculline as convulsion-inducing cause. The procedure: as §2
A further series in a line: Neurotoxicity (NT50). It is filed as in vivo. The note with it: rat. The procedure: as §2
For another series, the system named is picrotoxin. It is filed as in vivo. The procedure:
as §2

This note sets out measurements from patent US20030186997A1, “2,5-Dihydro-pyrazolo[3,4-d]pyrimidin-4-ones with an anticonsulsive action and methods for producing the same” (priority 2000, published 2003).

Consider `Cc1ccccc1Cn1cnc2nn(C)cc2c1=O` [Compound 14, 5-(2-methylbenzyl)-2-methyl-2,5-dihydropyrazolo[3,4-d]-pyrimidin-4-one], for which the melting point fell in the range of 185 to 186 °C. Moreover, the responders at 100 mg/kg with s.c. pentetrazole came out at 80%. Also, the logP in series [1] was 1.76. Moreover, the ED50 in the series with maximal electroshock [2] was determined as 9 mg/kg. The responders at 30 mg/kg in the series with maximal electroshock [3] was 100%.
Regarding `O=c1c2c[nH]nc2ncn1Cc1ccccc1Cl` [Compound 1, 5-(2-chlorobenzyl)-2,5-dihydropyrazolo[3,4-d]pyrimidin-4-one], the melting point was in the range of 186 to 187 °C. Moreover, the “activity in convulsion model” value in the series with bicuculline was “active”. Further, the “NT50 (neurotoxicity)” value in the series “Neurotoxicity (NT50)” is on record as more than 500 mg/kg. The responders at 100 mg/kg in the series on s.c. pentetrazole amounted to 80%. For the same compound, in series [1], the logP is 1.14. The “activity in convulsion model” value in the series on picrotoxin was “active”. The compound also came in with an ED50 with maximal electroshock [2] of 18 mg/kg. For the same compound, in the series with maximal electroshock [3], the responders at 30 mg/kg was 100%.
Turning to `CC(C)n1cc2c(=O)n(Cc3c(F)cccc3Cl)cnc2n1` [Compound 43, 5-(2-chloro-6-fluorobenzyl)-2-isopropyl-2,5-dihydropyrazolo[3,4-d]pyrimidin-4-one], the melting point was in the range of 159 to 161 °C. Moreover, in the series with s.c. pentetrazole, the responders at 300 mg/kg turned out to be 33%. In series [1], this compound returned a logP of 1.88. Moreover, the responders at 300 mg/kg in the series with maximal electroshock [3] (dose 300 mg/kg) worked out at 100%.
Turning to `O=c1c2c[nH]nc2ncn1Cc1ccc(F)cc1` [Compound 3, 5-(4-fluorobenzyl)-2,5-dihydropyrazolo[3,4-d]pyrimidin-4-one], the melting point was 260 to 261 °C. In addition, the responders at 300 mg/kg in the series with s.c. pentetrazole was found to be 60%. This compound registered a logP in series [1] of 0.62. In addition, the responders at 100 mg/kg in the series with maximal electroshock [3] came out at 33%.
Compound `Cn1cc2c(=O)n(Cc3c(F)cccc3F)cnc2n1` [Compound 21, 5-(2,6-difluorobenzyl)-2-methyl-2,5-dihydropyrazolo[3,4-d]pyrimidin-4-one] returned a melting point of 226 to 228 °C. Further, the responders at 100 mg/kg with s.c. pentetrazole came to 80%. For the same compound, in series [1], the logP came to 0.67. The ED50 in the series with maximal electroshock [2] was 3 mg/kg. In addition, the responders at 30 mg/kg with maximal electroshock [3] stood at 100%.
As for `CCn1cc2c(=O)n(Cc3c(F)cccc3F)cnc2n1` [Compound 37, 5-(2,6-difluorobenzyl)-2-ethyl-2,5-dihydropyrazolo[3,4-d]-pyrimidin-4-one], the melting point was in the range of 185 to 187 °C. In the series on s.c. pentetrazole, the responders at 300 mg/kg worked out at 20%. This compound displayed a logP in series [1] of 1.43. Besides, in the series with maximal electroshock [3], the responders at 100 mg/kg amounted to 80%.
The like results for `COc1ccccc1Cn1cnc2nn(C)cc2c1=O` [Compound 17, 5-(2-methoxybenzyl)-2-methyl-2,5-dihydropyrazolo[3,4-d]-pyrimidin-4-one] were, in that order, 160 to 162 °C, 100%, 0.92 and 100%.
The matching figures for `O=c1c2c[nH]nc2ncn1Cc1ccc(Cl)cc1Cl` [Compound 4, 5-(2,4-dichlorobenzyl)-2,5-dihydropyrazolo[3,4-d]-pyrimidin-4-one]: 236 to 237 °C, 40%, 1.96 and 100%.
The matching figures for `Cc1ccccc1Cn1cnc2n[nH]cc2c1=O` [Compound 6, 5-(2-methylbenzyl)-2,5-dihydropyrazolo[3,4-d]pyrimidin-4-one]: 221 to 222 °C, 100%, 1.36 and 67%.
